# Reference: patent US20240009173A1, “Use of 5-HT3-Targeting Drugs for Treatment of Acute Kidney Injury” (priority 2020, published 2024)
# Columns and labels:
# patients with AKI [1] = details: human, in vivo
# patients with AKI [2] = details: human, in vivo; remark: listed apart in the source
# [3] = system: patients without AKI on admission or prior to receiving drug; assay: Anti-emetic usage and AKI risk in first ICU encounter: usage, max KDIGO category, binary logistic regression (Example 3); assay type: in vivo, human
# Source text: Study Population: The study population excludes patients with end-stage kidney disease and excludes patients with Acute Kidney Injury on admission or prior to receiving drug. […] Metoclopramide is primarily a dopamine D2 receptor antagonist anti-emetic. […] Prochlorperazine is primarily a dopamine receptor antagonist anti-emetic. […] This was a binary logistic regression with an outcome of experiencing any AKI within a first ICU encounter. The independent variable was use of anti-emetic prior to AKI (or before discharge if no AKI). […] The independent variable was use of anti-emetic prior to AKI (or before discharge if no AKI). […] The outcome was experiencing any AKI. The […] was the use of medication within the average time prior to AKI.
# ICU patients = assay: Anti-emetic use and in-ICU death, logistic regression (Example 3); assay type: in vivo, human; details: outcome in-ICU death; use of medication within average time prior to AKI
# patients with AKI [4] = system: patients with AKI; parameters: species or system human; details: in vivo
# patients with AKI [5] = assay: Validation in eICU database: propensity score matching, chi-square test of ICU mortality (Example 4); assay type: in vivo, human
# all ICU patients = details: literature and/or clinical trials; cited from earlier work
# ICU patients with AKI = details: literature and/or clinical trials; cited from earlier work
# Intestine of rats = details: cited from earlier work
# [6] = system: Fridericia-corrected QTc interval; details: 32 mg, 15 minute infusion, cited from earlier work
# [7] = drug users, use before discharge/death or before AKI
# [8] = after matching, 3423 patients in group
# [9] = 84 mg-kg in water by oral gavage 0.25d vs vehicle
# [10] = gene negatively correlated with eGFR in human AKI cohort
# [11] = rat intestine, 84 mg-kg oral gavage, 0.25d vs vehicle
structure (smiles),measurement,setting,value
Cc1nccn1CC1CCc2c(c3ccccc3n2C)C1=O (centres unmarked) [Ondansetron],Death rate in MIMIC III database,patients with AKI [1],"140.91 per 1,000 patients"
same,average death rate,patients with AKI [1],14.1%
same,Death rate in eICU database,patients with AKI [2],"124.87 per 1,000 patients"
same,MAX KDIGO AKI Category 0 (%),[3]; [7],73.54%
same,"MAX KDIGO AKI Category 0, number of patients",[3]; [7],"32,447"
same,MAX KDIGO AKI Category 1 (%),[3]; [7],13.92%
same,"MAX KDIGO AKI Category 1, number of patients",[3]; [7],"6,143"
same,MAX KDIGO AKI Category 2 (%),[3]; [7],6.68%
same,"MAX KDIGO AKI Category 2, number of patients",[3]; [7],"2,946"
same,MAX KDIGO AKI Category 3 (%),[3]; [7],5.87%
same,"MAX KDIGO AKI Category 3, number of patients",[3]; [7],"2,588"
same,Odds Ratio,"[3]; outcome any AKI within first ICU encounter, use of anti-emetic prior to AKI (or before discharge if no AKI)",0.403
same,Odds Ratio,"[3]; outcome any AKI, use of medication within the average time prior to AKI",0.906
same,Odds Ratio,"[3]; outcome any AKI, use of medication within the average time prior to AKI, listed as ondansetron",protective
same,Odds Ratio,ICU patients,0.460
same,Coefficient,patients with AKI [4],−0.035
same,Alive (patients),patients with AKI [5]; [8],2993
same,Death (patients),patients with AKI [5]; [8],430
same,ICU mortality,"patients with AKI [5]; after propensity score matching, 3,423 patients per group",12.56%
same,Number Need to Treat (NNT),"patients with AKI [5]; eICU patients, 95% confidence interval 23.61, 103.72",38.46
same,Reported for protecting effect in all ICU patients,all ICU patients,N
same,Reported for protecting effect in ICU patients with AKI,ICU patients with AKI,N
same,Genes (differentially expressed genes in bioset),Intestine of rats; [9],"1,815"
same,down-regulated genes,Intestine of rats; [9],722
same,up-regulated genes,Intestine of rats; [9],"1,093"
same,Gene expression fold change by Ondansetron treatment: AMACR,Intestine of rats; [10],−2.38
same,Gene expression fold change by Ondansetron treatment: CASP1,Intestine of rats; [10],−8.03
same,Gene expression fold change by Ondansetron treatment: CPD,Intestine of rats; [10],−2.4
same,Gene expression fold change by Ondansetron treatment: GBP2,Intestine of rats; [10],−4.71
same,Gene expression fold change by Ondansetron treatment: KPNA2,Intestine of rats; [10],1.68
same,Gene expression fold change by Ondansetron treatment: MCL1,Intestine of rats; [10],−3.07
same,Gene expression fold change by Ondansetron treatment: MET,Intestine of rats; [10],−2.32
same,Gene expression fold change by Ondansetron treatment: TFPI,Intestine of rats; [10],4.25
same,gene expression fold change: Axin2,Intestine of rats; [11],2.12
same,gene expression fold change: Birc2,Intestine of rats; [11],−2.85
same,gene expression fold change: Casp3,Intestine of rats; [11],−4.18
same,gene expression fold change: Cdc42,Intestine of rats; [11],−1.7
same,gene expression fold change: Cdkn2b,Intestine of rats; [11],−3.79
same,gene expression fold change: Crk,Intestine of rats; [11],−2.78
same,gene expression fold change: Ctbp2,Intestine of rats; [11],−10.3
same,gene expression fold change: Ctnna1,Intestine of rats; [11],−2.95
same,gene expression fold change: Ctnnb1,Intestine of rats; [11],−6.88
same,gene expression fold change: Cycs,Intestine of rats; [11],−2.08
same,gene expression fold change: Erbb2,Intestine of rats; [11],−2.24
same,gene expression fold change: Fn1,Intestine of rats; [11],−10.3
same,gene expression fold change: Gsk3b,Intestine of rats; [11],2.3
same,gene expression fold change: Hdac1,Intestine of rats; [11],1.52
same,gene expression fold change: Itgb1,Intestine of rats; [11],−3.18
same,gene expression fold change: Jak1,Intestine of rats; [11],−10.7
same,gene expression fold change: Kras,Intestine of rats; [11],−2.58
same,gene expression fold change: Lamb2,Intestine of rats; [11],−4.03
same,gene expression fold change: Mapk1,Intestine of rats; [11],−4.09
same,gene expression fold change: Mapk3,Intestine of rats; [11],−1.98
same,gene expression fold change: Mapk9,Intestine of rats; [11],−5.48
same,gene expression fold change: Mecom,Intestine of rats; [11],1.46
same,gene expression fold change: Met,Intestine of rats; [11],−2.32
same,gene expression fold change: Msh2,Intestine of rats; [11],−2.29
same,gene expression fold change: Mtor,Intestine of rats; [11],−1.75
same,gene expression fold change: Pdgfrb,Intestine of rats; [11],1.49
same,gene expression fold change: Pik3r1,Intestine of rats; [11],−3.77
same,gene expression fold change: Plcg2,Intestine of rats; [11],−1.63
same,gene expression fold change: Pld1,Intestine of rats; [11],−5.95
same,gene expression fold change: Prkcb,Intestine of rats; [11],−3.73
same,gene expression fold change: Pten,Intestine of rats; [11],−4.92
same,gene expression fold change: Raf1,Intestine of rats; [11],1.51
same,gene expression fold change: Rb1,Intestine of rats; [11],−9.02
same,gene expression fold change: Smo,Intestine of rats; [11],−2.45
same,gene expression fold change: Sos2,Intestine of rats; [11],2.47
same,gene expression fold change: Tgfa,Intestine of rats; [11],−3.86
same,gene expression fold change: Tgfb1,Intestine of rats; [11],−1.54
same,gene expression fold change: Tgfb3,Intestine of rats; [11],1.83
same,gene expression fold change: Tpr,Intestine of rats; [11],−1.93
same,maximum mean (upper limit of 90% CI) difference in QTcF from placebo after baseline-correction,[6]; at 20 minutes,19.6 (21.5) msec
same,period in which prolongation of QTcF was observed after start of infusion,[6],15 to 240 min
